Laboratory results from US20240279604A1, “3D spheroid having uniform size and composition comprising neuron and astrocyte derived from Alzheimer's disease patients, method for producing thereof, and method and kit for screening drug using thereof” (Industry-University Cooperation Foundation Hanyang …, priority 2023, published 2024).
“Also recorded” adds a separate entry of the source.

Legend:
[1] = target: T1, Aβ (1-42) (Homo sapiens, UniProt P05067); assay: in vitro ThT fluorescence assay for Aβ (1-42) aggregation; assay type: biochemical; conditions: 10 μM compound, 2 μM Aβ (1-42), 20 μM ThT, pH 8.0, 37° C.; FIG. 6A
T1 construct: an Aβ (1-42) peptide (AGP-8338, Anygen, Gwangju, Republic of Korea); purchased Anygen AGP-8338
Experimental: The degree of inhibition of Aβ (1-42) aggregation was measured using an in vitro ThT fluorescence assay. An Aβ (1-42) stock (0.2 mM) was prepared in 50% DMSO, and NDGA and CU stocks were prepared in 100% DMSO. Reactions for Aβ (1-42) aggregation (2 μM) and its inhibition by NDGA or CU (10 μM) were performed in a 20 mM sodium phosphate buffer (pH 8.0) supplemented with 0.2 mM EDTA and 0.02% sodium azide in the presence of 20 μM ThT in microplate wells (Corning® 96-well Black Flat Bottom Polystyrene Not Treated Microplate, Corning). ThT fluorescence intensity was measured every 30 minutes under 0.5 min shaking under 335 rpm/29.5 min incubation conditions at 37° C. using an Infinite […] (TECAN Mannedorf, Switzerland) microplate reader with 450-nm excitation and 480-nm emission filters.

[2] = system: Alzheimer's disease-derived spheroids (PS1-mutated AD-iPSC-NPCs); assay: ThT staining of Aβ aggregates in Alzheimer's disease-derived spheroids; assay type: cell-based, human; conditions: 10 μM, 3 days; confocal microscopy; FIG. 6C
Experimental: (§1) For drug efficacy testing of 3D cultured cells, PS1-mutated AD-iPSC-NPCs were differentiated into spheroids in a U-bottom plate (Thermo Fisher Scientific). Spheroids were cultured with nordihydroguaiaretic acid (NDGA)(10 μM, Tokyo Chemical Industry, Tokyo, Japan) or curcumin (CU)(10 μM, Tokyo Chemical Industry) in a humidified incubator under 37° C. and 5% CO^2 conditions for 3 days and then fixed for immunocytochemistry and western blotting.
(§2) After washing with a probe-free medium, samples were captured and analyzed using a fluorescence microscope (FV3000, Olympus).

[3] = system: Alzheimer's disease-derived spheroids (PS1-mutated AD-iPSC-NPCs); assay: Aβ (1-42) ELISA in Alzheimer's disease-derived spheroids cultured with drug; assay type: cell-based, human; conditions: 10 μM, 3 days; FIG. 6B
Experimental: as §1

[4] = system: Alzheimer's disease-derived spheroids (PS1-mutated AD-iPSC-NPCs); assay: CellEvent Caspase-3/7 Green activated caspase staining in Alzheimer's disease-derived spheroids; assay type: cell-based, human; conditions: for CellEvent fluorescence signal (activated caspase cell death staining): 10 μM, 3 days, confocal microscopy, FIG. 6D; for green fluorescence of activated caspase, confocal z-stack from surface to inside of spheroids (cell penetration/uptake): confocal z-stack images, FIG. 7
Experimental: as §1
(§3) After being washed with a probe-free medium, samples were captured and analyzed using a fluorescence microscope (FV3000, Olympus). Cell penetration/uptake by CellEvent staining was analyzed with confocal z-stack data for the green fluorescence of activated caspase released from the inside of spheroids. The confocal z-stack data was obtained from 100 slides of each 1 μm of one spheroid.

[5] = system: 3D spheroids manufactured from iPSC-NPCs derived from healthy individuals; assay: CellEvent activated caspase staining of control 3D spheroids treated with oligomerized Aβ; assay type: cell-based, human; conditions: Aβ aggregates 10 μM, 24 hours, compared to untreated; FIG. 4C
Experimental: (§4) J Neurosci Methods. 2010; 190(2): 171-179. […] When used, Aβ was suspended in PBS and used.
as §3

[6] = system: 3D spheroids manufactured from iPSC-NPCs derived from healthy individuals; assay: ThT staining of control 3D spheroids treated with oligomerized Aβ; assay type: cell-based, human; conditions: Aβ aggregates 10 μM, 24 hours, compared to spheroids not treated with Aβ; FIG. 4A
Excerpt: as §4, §2

T1 sequence (P05067 672-713 limits assumed): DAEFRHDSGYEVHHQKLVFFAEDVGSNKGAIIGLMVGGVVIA

Row | Compound | Aβ (1-42) aggregation (ThT fluorescence) [1] | ThT fluorescence signal / staining intensity (Aβ aggregates) [2] | Aβ (1-42) levels by ELISA [3] | CellEvent fluorescence signal (activated caspase cell death staining) [4] | green fluorescence of activated caspase, confocal z-stack from surface to inside of spheroids (cell penetration/uptake) [4] | green fluorescence emission according to CellEvent staining (cell death) [5] | ThT fluorescence emission [6]
1 | CC(Cc1ccc(O)c(O)c1)C(C)Cc1ccc(O)c(O)c1 (stereo not drawn) [NDGA, nordihydroguaiaretic acid] | suppressed | reduced | decreased; also recorded: reduced | reduced | reduction in fluorescence from the surface to the inside of spheroids |  | 
2 | oligomerized Aβ: Aβ (1-42) peptide aggregated/oligomerized in DMSO, used to treat control spheroids |  |  |  |  |  | substantially increased | noticeably increased
3 | COc1cc(/C=C/C(=O)CC(=O)/C=C/c2ccc(O)c(OC)c2)ccc1O [CU, curcumin] | suppressed | reduced | decreased; also recorded: reduced | reduced | reduction in fluorescence from the surface to the inside of spheroids |  | 
